Test results reported in the supplement of paper PMC10307832.

How the values were obtained:
Assay in all cases: relative viability (nuclei count vs DMSO), 5 days (fraction); higher = more cells survive
Zosuquidar + Olaparib = compound: O[C@@H](COc1cccc2ncccc12)CN1CCN([C@@H]2c3ccccc3[C@@H]3[C@H](c4ccccc42)C3(F)F)CC1 [Zosuquidar] + O=C(c1cc(Cc2n[nH]c(=O)c3ccccc23)ccc1F)N1CCN(C(=O)C2CC2)CC1 [Olaparib] (partner 8 µM)
Summary of the method: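 One day after seeding in 1536-well plates, lung cancer cell lines were dosed by pin tool. Dosing was either single-drug or a fixed anchor-drug dose plus five library-drug doses (not always all listed) in √10 steps. After 5 days, nuclei were stained in one fix-and-stain step and counted on 4× images, and relative viability is the nuclei count of treated wells over that of vehicle wells, given as the median of duplicate plates.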

Zosuquidar = compound: O[C@@H](COc1cccc2ncccc12)CN1CCN([C@@H]2c3ccccc3[C@@H]3[C@H](c4ccccc42)C3(F)F)CC1 [Zosuquidar]
Summary of the method: (§1)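 A plate was accepted only when its control CV was below 25% and the cells had doubled at least once. Viability is defined from nuclear counts as treated wells divided by vehicle wells, with the median taken across plates. That median covers lung cancer cell lines grown in 1536-well plates, dosed by pinning at five √10-spaced library-drug concentrations, and counted in MetaXpress from 4× Hoechst images after 5 days.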

Cabozantinib = compound: COc1cc2nccc(Oc3ccc(NC(=O)C4(C(=O)Nc5ccc(F)cc5)CC4)cc3)c2cc1OC [Cabozantinib]
Summary of the method: as §1

Kobe2602 = compound: C1=CC(=CC=C1NC(=S)NNC2=C(C=C(C=C2[N+](=O)[O-])C(F)(F)F)[N+](=O)[O-])F [Kobe2602]
Summary of the method: as §1

UMC-11
relative viability (Zosuquidar + Olaparib; first compound 0.01 µM): 0.505 | relative viability (Zosuquidar + Olaparib; first compound 0.03162 µM): 0.38 | relative viability (Zosuquidar + Olaparib; first compound 0.1 µM): 0.413 | relative viability (Zosuquidar + Olaparib; first compound 0.3162 µM): 0.385 | relative viability (Zosuquidar + Olaparib; first compound 1 µM): 0.34 | relative viability (Zosuquidar; 0.01 µM): 0.957 | relative viability (Zosuquidar; 0.03162 µM): 1.04 | relative viability (Zosuquidar; 0.1 µM): 0.908 | relative viability (Zosuquidar; 0.3162 µM): 1.11 | relative viability (Zosuquidar; 1 µM): 0.96 | relative viability (Cabozantinib; 0.02 µM): 0.989 | relative viability (Cabozantinib; 0.06325 µM): 1.11 | relative viability (Cabozantinib; 0.2 µM): 0.963 | relative viability (Cabozantinib; 0.6325 µM): 1.04 | relative viability (Cabozantinib; 2 µM): 1 | relative viability (Kobe2602; 0.2 µM): 1.05 | relative viability (Kobe2602; 0.6325 µM): 1.01 | relative viability (Kobe2602; 2 µM): 1.06 | relative viability (Kobe2602; 6.325 µM): 0.975 | relative viability (Kobe2602; 20 µM): 1.05
